The target in one data set is T1, CCK-B receptor (Cavia porcellus, UniProt H0VZC5).
T1 construct: guinea pig cortex assay; from tissue; host or cells: guinea pig cortex
T1 sequence (H0VZC5 1-426): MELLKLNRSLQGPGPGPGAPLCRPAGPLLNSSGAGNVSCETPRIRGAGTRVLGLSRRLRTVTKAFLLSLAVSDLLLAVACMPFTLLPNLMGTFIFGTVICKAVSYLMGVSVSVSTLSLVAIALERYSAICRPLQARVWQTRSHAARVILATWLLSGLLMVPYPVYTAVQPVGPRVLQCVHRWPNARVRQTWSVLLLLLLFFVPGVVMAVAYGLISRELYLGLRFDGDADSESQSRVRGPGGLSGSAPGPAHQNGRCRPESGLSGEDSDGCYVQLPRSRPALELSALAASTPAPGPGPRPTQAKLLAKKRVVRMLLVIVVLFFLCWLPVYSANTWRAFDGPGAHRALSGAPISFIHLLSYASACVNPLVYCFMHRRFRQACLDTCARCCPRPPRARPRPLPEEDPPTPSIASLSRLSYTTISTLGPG
The data set can be described thus: CCK-B receptor binding affinity (guinea pig cortex assay). The method, then:
The affinity of the compound of the invention for the CCK-B receptor has also been determined using the guinea pig codex assay as described by G Dal Fornoto et al J. Pharmacol Exp. Ther., 261 1056-1063, 1992.
The binding affinity of the compounds of the invention for the CCK-B receptor (guinea pig cortex assay) was determined using the procedure of G Dal Forno et al J. Pharmacol. Exp & Ther. 261--1056-1063. The pKi values determined with respresentative compounds of invention were as follows: […]

The test system of a further data set is rats. The data set can be described thus: tolerability in rats. It is filed as in vivo. The conditions noted are these: doses at which the compound exhibits CCK-B antagonist activity. From the text: (§1) The compounds of the invention are essentially non-toxic and therapeutically useful doses.
For another data set, the system named is dogs. Briefly: tolerability in dogs. It is filed as in vivo. The conditions noted are these: doses at which the compound exhibits CCK-B antagonist activity.
Source text: as §1

SMILES strings stand for the structures.

The Ki is a dissociation constant, usually derived from enzyme kinetics or from competition with a known ligand.

`COc1cccc(NC(=O)NC2N=C(CN3CCOCC3)c3ccccc3N(CC(=O)N(C)c3ccccc3)C2=O)c1` (stereo not shown) [Example 9, 2-{3-[3-(3-Methoxy-phenyl)-ureido]-5-morpholin-4-ylmethyl-2-oxo-2,3-dihydro-benzo[e][1,4]diazepin-1-yl}-N-methyl-N-phenyl-acetamide]: affinity on CCK-B receptor was put at a Ki of 1.26 nM.
`CN(C(=O)CN1C(=O)C(NC(=O)Nc2cccc(C#N)c2)N=C(CN2CCCCC2)c2ccccc21)c1ccccc1` (stereo not shown) [Example 1, 2-{3-[3-(3-Cyano-phenyl)-ureido]-2-oxo-5-piperidin-1-ylmethyl-2,3-dihydro-benzo-[e][4.1]diazepin-1-yl}-N-methyl-N-phenyl-acetamide] had a Ki on CCK-B receptor of 1 nM.
In the case of `CN(C(=O)CN1C(=O)C(NC(=O)Nc2ccccc2)N=C(CN2CCOCC2)c2ccccc21)c1ccccc1` (stereo not shown) [Example 10, N-Methyl-2-[5-morpholin-4-ylmethyl-2-oxo-3-(3-phenyl-ureido)-2,3-dihydro-benzo[e][1,4]diazepin-1-yl]-N-methyl-N-phenyl-acetamide], at CCK-B receptor, the affinity, expressed as Ki, was 0.794 nM.
Turning to `CN1CCN(CC2=NC(NC(=O)Nc3cccc(C#N)c3)C(=O)N(CC(=O)N(C)c3ccccc3)c3ccccc32)CC1` (stereo not shown) [Example 16, 2-{3-[3-(3-Cyano-phenyl)-ureido]-5-(4-methyl-piperazin-1-ylmethyl)-2-oxo-2,3-dihydro-benzo[e][1,4]diazepin-1-yl}-N-methyl-N-phenyl-acetamide], the Ki on CCK-B receptor was 5.01 nM.
Same read-out and setting: the figure for `CCN(C(=O)CN1C(=O)C(NC(=O)Nc2cccc(C#N)c2)N=C(CN2CCOCC2)c2ccccc21)c1ccccc1` (stereo not shown) [Example 7, 2-{3-[3-(3-Cyano-phenyl)-ureido]-5-morpholin-4-ylmethyl-2-oxo-2,3-dihydro-benzo[e][1,4]diazepin-1yl}-N-ethyl-N-phenyl-acetamide] is 1.58 nM.
Same read-out and setting: the figure for `O=C(Nc1cccc(-c2cnco2)c1)NC1N=C(CN2CCOCC2)c2ccccc2N(CC(=O)N2CCCC2)C1=O` (stereo not shown) [Example 19, 1-[5-(Morpholin-4-yl-methyl)-2-oxo-1-(2-oxo-2-pyrrolidin-1-yl-ethyl)-2,3-dihydro-benzo[e][1,4]diazepin-3-yl]-3-(3-oxazol-5-yl-phenyl)-urea] is 3.16 nM.
Take `CC(C)(C)C(=O)CN1C(=O)C(NC(=O)Nc2cccc(C#N)c2)N=C(CN2CCOCC2)c2ccccc21` (stereo not shown) [Example 8, 1-(3-Cyano-phenyl)-3-[1-(3,3-dimethyl-2-oxo-butyl)-5-morpholin-4-ylmethyl-2-oxo-2,3-dihydro-1H-benzo[e][1,4]diazepin-3-yl]-urea]: the affinity at CCK-B receptor, expressed as Ki, was 1.58 nM.
On to `COc1cccc(NC(=O)NC2N=C(CN3CCOCC3)c3ccccc3N(CC(=O)N(C)c3ccccc3)C2=O)c1` (single isomer, unassigned; (+)) [Example 14, (+)-2-{3-[3-(3-Methoxy-phenyl)-ureido]-5-morpholin-4-ylmethyl-2-oxo-2.3-dihydro-benzo [e][1,4]diazepin-1-yl}-N-methyl-N-phenyl-acetamide], for which the “untoward effects in rats” value in the data set on rats is listed as “no untoward effects were observed”. At CCK-B receptor, the affinity, expressed as Ki, was 1 nM. For the same compound, the “untoward effects in dogs” value in the data set on dogs is listed as “no untoward effects were observed”.
As for `CN(C(=O)CN1C(=O)C(NC(=O)Nc2cccc(C#N)c2)N=C(CN2CCOCC2)c2ccccc21)c1ccc(F)cc1` (stereo not shown) [Example 6, 2-{3-[3-(3-Cyano-phenyl)-ureido]-5-morpholin-4-ylmethyl-2-oxo-2,3-dihydro-benzo-[e][1,4]diazepin-1-yl}-N-(4-fluoro-phenyl)-N-methyl-acetamide], the Ki at CCK-B receptor was 2 nM.
Compound `CN(C(=O)CN1C(=O)C(NC(=O)Nc2cccc(N)c2)N=C(CN2CCOCC2)c2ccccc21)c1ccccc1` (stereo not shown) [Example 13, 2-{3-[3-(3-Amino-phenyl)-ureido]-5-morpholin-4-ylmethyl-2-oxo-2,3-dihydro-benzo[e][1,4]diazepin-1-yl}-N-methyl-N-phenyl-acetamide] showed a Ki on CCK-B receptor of 6.31 nM.
The same measure, in the same setting: the figure for `CN(C(=O)CN1C(=O)C(NC(=O)Nc2cccc(C(F)(F)F)c2)N=C(CN2CCOCC2)c2ccccc21)c1ccccc1` (stereo not shown) [Example 11, N-Methyl-2-{5-morpholin-4-ylmethyl-2-oxo-3-[3-(3-trifluoromethyl-phenyl)-ureido]-2,3-dihydro-benzo[e][1,4]diazepin-1-yl}-N-phenyl-acetamide] is 0.501 nM; for `CN(C(=O)CN1C(=O)C(NC(=O)Nc2cccc(C#N)c2)N=C(CN2CCOCC2)c2ccccc21)c1ccccc1` (stereo not shown) [Example 18, 2-{3-[3-(3-Cyano-phenyl)-ureido]-5-morpholin-4-ylmethyl-2-oxo-2,3-dihydro-benzo [e][1,4]diazepin-1-yl}-N-methyl-N-phenyl-acetamide] it is 1.26 nM; for `COc1cccc(NC(=O)NC2N=C(CCN(C)C)c3ccccc3N(CC(=O)N(C)c3ccccc3)C2=O)c1` (stereo not shown) [Example 17] it is 2.51 nM.
Compound `CC(C)NCC1=NC(NC(=O)Nc2cccc(C#N)c2)C(=O)N(CC(=O)N(C)c2ccccc2)c2ccccc21` (stereo not shown) [Example 3, 2-{-[3-(3-Cyano-phenyl)ureido]-5-(isopropylamino-methyl)-2-oxo-2,3-dihydro-benzo-[e][1,4]diazepin-1-yl}-N-methyl-N-phenyl-acetamide] showed a Ki on CCK-B receptor of 2.51 nM.
At CCK-B receptor, `CN(C(=O)CN1C(=O)C(NC(=O)Nc2cccc(C#N)c2)N=C(CN2CCCC2)c2ccccc21)c1ccccc1` (stereo not shown) [Example 2, 2-{3-[3-(3-Cyano-phenyl)-ureido]-2-oxo-5-pyrrolidin-1-ylmethyl-2,3-dihydro-[e][1,4]diazepin-1-yl}-N-methyl-N-phenyl-acetamide] gave a Ki of 3.98 nM.
On to `C[C@@H]1CC[C@H](C)N1C(=O)CN1C(=O)C(NC(=O)Nc2cccc(C#N)c2)N=C(CN2CCOCC2)c2ccccc21` (stereo partly shown) [Example 5], for which the Ki on CCK-B receptor was 3.16 nM.
As to `CN(C(=O)CN1C(=O)C(NC(=O)Nc2cccc(C#N)c2)N=C(CN2CCSCC2)c2ccccc21)c1ccccc1` (stereo not shown) [Example 4, 2-{3-[3-(3-Cyano-phenyl)-ureido]-2-oxo-5-[1,4]thiazinan-4-ylmethyl-2,3-dihydro-benzo[e][1,4]diazepin-1-y}-N-methyl-N-phenyl-acetamide], affinity on CCK-B receptor was put at a Ki of 1.58 nM.

These data come from patent US5569654A, “Benzodiazepinones” (Glaxo Group Limited, priority 1992, dated 1996).
